In one experiment the test system is Beet Armyworm (BAW). Description: Bioassays on BAW, 128-well diet tray assay. In kind it is in vivo. The conditions noted are these: Spodoptera exigua; for mortality at 50 µg/cm2: 168 h, 50 μg/cm^2 on artificial diet, second instar larvae, five to seven days, 25° C., read-out: BAW % Control (or Mortality) rating; for mortality at 0.05 µg/cm2: 0.05 μg/cm^2; for mortality at 0.05 µg/cm2 / mortality at 0.5 µg/cm2 / mortality at 5 µg/cm2: read-out: BAW Percent control (or mortality); for mortality at 0.5 µg/cm2: 0.5 μg/cm^2; for mortality at 5 µg/cm2: 5 μg/cm^2. The method, then: Bioassays on BAW were conducted using a 128-well diet tray assay. one to five second instar BAW larvae were placed in each well (3 mL) of the diet tray that had been previously filled with 1 mL of artificial diet to which 50 μg/cm^2 of the test compound (dissolved in 50 μL of 90:10 acetone-water mixture) had been applied (to each of eight wells) and then allowed to dry. Trays were covered with a clear self-adhesive cover, and held at 25° C., 14:10 light-dark for five to seven days. Percent mortality was recorded for the larvae in each well; activity in the eight wells was then averaged. The results are indicated in the tables entitled “Table ABC: Assay Results (F)”, “Table ABCD: Assay Results (C)”, and “Table ABCDE: Assay Results (P)” (See Table Section).
(§1) Bioassays on BAW and CL were conducted according to the procedures outlined in Example A: Bioassays on Beet Armyworm (“BAW”) and Cabbage Looper (“CL”) using the following concentrations: 5, 0.5, and 0.05 μg/cm^2.

Another experiment relates to Cabbage Looper (CL). Description: Bioassays on CL, 128-well diet tray assay. It is filed as in vivo. The conditions noted are these: Trichoplusia ni; for mortality at 50 µg/cm2: 168 h, 50 μg/cm^2 on artificial diet, second instar larvae, five to seven days, 25° C., read-out: CL % Control (or Mortality) rating; for mortality at 0.05 µg/cm2: 0.05 μg/cm^2; for mortality at 0.05 µg/cm2 / mortality at 0.5 µg/cm2 / mortality at 5 µg/cm2: read-out: CL Percent control (or mortality); for mortality at 0.5 µg/cm2: 0.5 μg/cm^2; for mortality at 5 µg/cm2: 5 μg/cm^2. On the procedure:
Bioassays on CL were conducted using a 128-well diet tray assay. One to five second instar CL larvae were placed in each well (3 mL) of the diet tray that had been previously filled with 1 mL of artificial diet to which 50 μg/cm^2 of the test compound (dissolved in 50 μL of 90:10 acetone-water mixture) had been applied (to each of eight wells) and then allowed to dry. Trays were covered with a clear self-adhesive cover, and held at 25° C., 14:10 light-dark for five to seven days. Percent mortality was recorded for the larvae in each well; activity in the eight wells was then averaged. The results are indicated in the table entitled “Table ABC: Assay Results (F)”, “Table ABCD: Assay Results (C)”, and “Table ABCDE: Assay Results (P)” (See Table Section).
as §1

As to `Cc1cc(/C=C/C(c2cc(Cl)c(Br)c(Cl)c2)C(F)(F)F)ccc1C(=O)N[C@H](C)NC(=O)CCC(F)(F)F` (stereo partly drawn) [Compound P16, 4-((E)-3-(4-Bromo-3,5-dichlorophenyl)-4,4,4-trifluorobut-1-en-1-yl)-2-methyl-N—((R)-1-(4,4,4-trifluorobutanamido)ethyl)benzamide], the mortality at 50 µg/cm2 in the experiment on Beet Armyworm (BAW) and in the experiment on Cabbage Looper (CL) was 50 to 100% each time.

`C[C@H](NC(=O)CCC(F)(F)F)NC(=O)c1ccc(/C=C/C(c2cc(Cl)c(Cl)c(Cl)c2)C(F)(F)F)cc1` (stereo partly drawn) [FC1, 4-((E)-4,4,4-Trifluoro-3-(3,4,5-trichlorophenyl)but-1-en-1-yl)-N—((R)-1-(4,4,4-trifluorobutanamido)ethyl)benzamide]: in the experiment with Beet Armyworm (BAW), the mortality at 0.05 µg/cm2 is 0%, the mortality at 0.5 µg/cm2 was 0% and the mortality at 5 µg/cm2 stood at 13%. Besides, in the experiment with Cabbage Looper (CL), the mortality at 0.05 µg/cm2 was found to be 0%, the mortality at 0.5 µg/cm2 was 0% and the mortality at 5 µg/cm2 is 71%.

Take `CSCCC(=O)N[C@@H](C)NC(=O)c1ccc(/C=C/C(c2cc(Cl)c(Cl)c(Cl)c2)C(F)(F)F)cc1C(F)(F)F` (stereo partly drawn) [Compound P53, N—((R)-1-(3-(Methylthio)propanamido)ethyl)-4-((E)-4,4,4-trifluoro-3-(3,4,5-trichlorophenyl)but-1-en-1-yl)-2-(trifluoromethyl)benzamide]: the mortality at 50 µg/cm2 in the experiment with Beet Armyworm (BAW) and in the experiment with Cabbage Looper (CL) was 50 to 100% in each case.

In the case of `C[C@H](NC(=O)CCC(F)(F)F)NC(=O)c1ccc(/C=C/C(c2cc(Cl)c(Cl)c(Cl)c2)C(F)(F)F)cc1C(F)(F)F` (stereo partly drawn) [Compound F1, 4-((E)-4,4,4-Trifluoro-3-(3,4,5-trichlorophenyl)but-1-en-1-yl)-N—((R)-1-(4,4,4-trifluorobutanamido)ethyl)-2-(trifluoromethyl)benzamide], in the experiment with Beet Armyworm (BAW), the mortality at 50 µg/cm2 fell in the range of 50 to 100%, the mortality at 0.05 µg/cm2 worked out at 100%, the mortality at 0.5 µg/cm2 turned out to be 100% and the mortality at 5 µg/cm2 is 100%. For the same compound, in the experiment with Cabbage Looper (CL), the mortality at 50 µg/cm2 is 50 to 100%, the mortality at 0.05 µg/cm2 is 97%, the mortality at 0.5 µg/cm2 was 100% and the mortality at 5 µg/cm2 came out at 100%.

`CNCCNC(=O)c1ccc(/C=C/C(c2cc(Cl)c(Cl)c(Cl)c2)C(F)(F)F)cc1C(F)(F)F` (stereo not drawn) [Compound C115, (E)-N-(2-(methylamino)ethyl)-4-(4,4,4-trifluoro-3-(3,4,5-trichlorophenyl)but-1-en-1-yl)-2-(trifluoromethyl)benzamide]: the results for the mortality at 50 µg/cm2 in the experiment with Beet Armyworm (BAW) and in the experiment with Cabbage Looper (CL) were 50 to 100% and 0%, respectively.

`C[C@H](NC(=O)CCS(C)(=O)=O)NC(=O)c1ccc(/C=C/C(c2cc(Cl)c(Cl)c(Cl)c2)C(F)(F)F)cc1C(F)(F)F` (stereo partly drawn) [Compound P47, N—((R)-1-(3-(methylsulfonyl)propanamido)ethyl)-4-((E)-4,4,4-trifluoro-3-(3,4,5-trichlorophenyl)but-1-en-1-yl)-2-(trifluoromethyl)benzamide]: the mortality at 50 µg/cm2 in the experiment on Beet Armyworm (BAW) and in the experiment on Cabbage Looper (CL) was 50 to 100% in each case.

For the compound `O=C(CCC(F)(F)F)NCNC(=O)c1ccc(/C=C/C(c2cc(Cl)c(Cl)c(Cl)c2)C(F)(F)F)cc1C(F)(F)F` (stereo not drawn) [Compound F13, (E)-4-(4,4,4-Trifluoro-3-(3,4,5-trichlorophenyl)but-1-en-1-yl)-N-((4,4,4-trifluorobutanamido)methyl)-2-(trifluoromethyl)benzamide], the mortality at 50 µg/cm2 in the experiment with Beet Armyworm (BAW) and in the experiment on Cabbage Looper (CL) was 50 to 100% in each case.

Take `C[C@H](NC(=O)CC(F)(F)F)NC(=O)c1ccc(/C=C/C(c2cc(Cl)c(F)c(Cl)c2)C(F)(F)F)cc1C(F)(F)F` (stereo partly drawn) [Compound P1, 4-((E)-3-(3,5-Dichloro-4-fluorophenyl)-4,4,4-trifluorobut-1-en-1-yl)-2-(trifluoromethyl)-N—((R)-1-(3,3,3-trifluoropropanamido)ethyl)benzamide]: the mortality at 50 µg/cm2 with Beet Armyworm (BAW) and in the experiment on Cabbage Looper (CL) was 50 to 100% in each case.

Regarding `CSCC(=O)N[C@@H](C)NC(=O)c1ccc(/C=C/C(c2cc(Cl)c(Cl)c(Cl)c2)C(F)(F)F)cc1C(F)(F)F` (stereo partly drawn) [Compound P54, N—((S)-1-(2-(Methylthio)acetamido)ethyl)-4-((E)-4,4,4-trifluoro-3-(3,4,5-trichlorophenyl)but-1-en-1-yl)-2-(trifluoromethyl)benzamide], the mortality at 50 µg/cm2 with Beet Armyworm (BAW) and with Cabbage Looper (CL) was 50 to 100% each time.

For `Cc1cc(/C=C/C(c2cc(Cl)c(Br)c(Cl)c2)C(F)(F)F)ccc1C(=O)N[C@H](C)NC(=O)CC(F)(F)F` (stereo partly drawn) [Compound P8, 4-((E)-3-(4-Bromo-3,5-dichlorophenyl)-4,4,4-trifluorobut-1-en-1-yl)-2-methyl-N—((R)-1-(3,3,3-trifluoropropanamido)ethyl)benzamide], the mortality at 50 µg/cm2 in the experiment with Beet Armyworm (BAW) and in the experiment on Cabbage Looper (CL) was 50 to 100% each time.

On to `C[C@H](NC(=O)CS(C)(=O)=O)NC(=O)c1ccc(/C=C/C(c2cc(Cl)c(Cl)c(Cl)c2)C(F)(F)F)cc1C(F)(F)F` (stereo partly drawn) [Compound P43, N—((S)-1-(2-(Methylsulfonyl)acetamido)ethyl)-4-((E)-4,4,4-trifluoro-3-(3,4,5-trichlorophenyl)but-1-en-1-yl)-2-(trifluoromethyl)benzamide], for which the mortality at 50 µg/cm2 in the experiment with Beet Armyworm (BAW) and with Cabbage Looper (CL) was 50 to 100% in each case.

On to `C[C@H](NC(=O)CC(F)(F)F)NC(=O)c1ccc(/C=C/C(c2cc(Cl)c(Cl)c(Cl)c2)C(F)(F)F)cc1` (stereo partly drawn) [FC2, 4-((E)-4,4,4-Trifluoro-3-(3,4,5-trichlorophenyl)but-1-en-1-yl)-N—((R)-1-(3,3,3-trifluoropropanamido)ethyl)benzamide], for which, in the experiment with Beet Armyworm (BAW), the mortality at 0.05 µg/cm2 was determined as 0%, the mortality at 0.5 µg/cm2 turned out to be 0% and the mortality at 5 µg/cm2 was determined as 0%. Further, in the experiment on Cabbage Looper (CL), the mortality at 0.05 µg/cm2 amounted to 0%, the mortality at 0.5 µg/cm2 worked out at 0% and the mortality at 5 µg/cm2 is 0%.

As to `CC(CC(F)(F)F)C(=O)N[C@@H](C)NC(=O)c1ccc(/C=C/C(c2cc(Cl)c(Cl)c(Cl)c2)C(F)(F)F)cc1C(F)(F)F` (stereo partly drawn) [Compound P30, N—((R)-1-(4,4,4-Trifluoro-2-methylbutanamido)ethyl)-4-((E)-4,4,4-trifluoro-3-(3,4,5-trichlorophenyl)but-1-en-1-yl)-2-(trifluoromethyl)benzamide], the mortality at 50 µg/cm2 with Beet Armyworm (BAW) and in the experiment on Cabbage Looper (CL) was 50 to 100% throughout.

In the case of `Cc1cc(/C=C/C(c2cc(Cl)c(Cl)c(Cl)c2)C(F)(F)F)ccc1C(=O)N[C@H](C)NC(=O)CC(F)(F)F` (stereo partly drawn) [Compound P22, 2-Methyl-4-((E)-4,4,4-trifluoro-3-(3,4,5-trichlorophenyl)but-1-en-1-yl)-N—((R)-1-(3,3,3-trifluoropropanamido)ethyl)benzamide], in the experiment on Beet Armyworm (BAW), the mortality at 50 µg/cm2 was in the range of 50 to 100%, the mortality at 0.05 µg/cm2 is 25%, the mortality at 0.5 µg/cm2 is 100% and the mortality at 5 µg/cm2 was 100%. Besides, in the experiment with Cabbage Looper (CL), the mortality at 50 µg/cm2 lay in the range of 50 to 100%, the mortality at 0.05 µg/cm2 worked out at 63%, the mortality at 0.5 µg/cm2 was found to be 100% and the mortality at 5 µg/cm2 amounted to 100%.

For `C[C@H](NC(=O)CCC(F)(F)F)NC(=O)c1ccc(/C=C/C(c2cc(Cl)c(F)c(Cl)c2)C(F)(F)F)cc1C(F)(F)F` (stereo partly drawn) [Compound P9, 4-((E)-3-(3,5-Dichloro-4-fluorophenyl)-4,4,4-trifluorobut-1-en-1-yl)-N—((R)-1-(4,4,4-trifluorobutanamido)ethyl)-2-(trifluoromethyl)benzamide], the mortality at 50 µg/cm2 with Beet Armyworm (BAW) and in the experiment on Cabbage Looper (CL) was 50 to 100% each time.

Turning to `Cc1cc(/C=C/C(c2cc(Br)cc(Br)c2)C(F)(F)F)ccc1C(=O)N[C@H](C)NC(=O)CCC(F)(F)F` (stereo partly drawn) [Compound P15, 4-((E)-3-(3,5-Dibromophenyl)-4,4,4-trifluorobut-1-en-1-yl)-2-methyl-N—((R)-1-(4,4,4-trifluorobutanamido)ethyl)benzamide], the mortality at 50 µg/cm2 with Beet Armyworm (BAW) and in the experiment on Cabbage Looper (CL) was 50 to 100% throughout.

In the case of `Cc1cc(/C=C/C(c2cc(Cl)c(Cl)c(Cl)c2)C(F)(F)F)ccc1C(=O)N[C@H](C)NC(=O)CCC(F)(F)F` (stereo partly drawn) [Compound P25, 2-Methyl-4-((E)-4,4,4-trifluoro-3-(3,4,5-trichlorophenyl)but-1-en-1-yl)-N—((R)-1-(4,4,4-trifluorobutanamido)ethyl)benzamide], in the experiment on Beet Armyworm (BAW), the mortality at 50 µg/cm2 was in the range of 50 to 100%, the mortality at 0.05 µg/cm2 was 100%, the mortality at 0.5 µg/cm2 worked out at 100% and the mortality at 5 µg/cm2 is 100%. In the experiment on Cabbage Looper (CL), the mortality at 50 µg/cm2 lay within 50 to 100%, the mortality at 0.05 µg/cm2 turned out to be 100%, the mortality at 0.5 µg/cm2 turned out to be 100% and the mortality at 5 µg/cm2 came out at 100%.

The values are drawn from patent US9676704B2, “Pesticidal compositions and processes related thereto” (Dow AgroSciences LLC, priority 2014, dated 2017).
